Columns and labels:
Type in all cases: in vivo
guinea-pigs = test: Gastric emptying in guinea-pigs (passage of barium sulphate spheres, X-ray location); settings: guinea pig
Method: Test compound: 1,2,3,9-tetrahydro-9-methyl-3-[(2-methyl-1H-imidazol-1-yl)methyl]-4H-carbazol-4-one hydrochloride dihydrate. The effect of the test compound on gastric emptying was determined in guinea-pigs by following the progress of polystyrene-coated barium sulphate spheres (1 mm diameter) through the gut. The experimental method was based on that described by B. Costall et. al., Eur. J. Pharmacol 91, 197-205, 1983 and B. Cox et. al., Br. J. Pharmacol. 70, 104, 1980.
The spheres (approximatley 30 in number) were administered orally in 0.2 ml carboxymethylcellulose with 0.05 ml glycerine. At the same time, the test compound was administered intraperitoneally at doses of 0.001, 0.01 and 0.1 mg/kg. The control animals received saline, administered intraperitoneally, in place of the test compound. Passage of the spheres through the gut was monitored at 30-60 minute intervals over a period of 2 hours by X-ray location. The number of spheres leaving the stomach was recorded and expressed as a percentage of the total.

ferrets [1] = test: Cisplatin-induced emesis in ferrets, test compound i.v.; settings: ferret
Method: Both the test compound and cisplatin were prepared and administered in normal saline. The dose of test compound was calculated as the free base.
Emesis was induced in groups of 6 male ferrets weighing between 1.5-2 kg, by intravenous administration of cisplatin at a dose of 10 mg/kg. The onset of emesis occurred between 38 and 75 minutes after injection and over a period of 2 hours the number of vomits/retches (episodes) was in the range 30-62 (average 42±5 vomits/retches per 2 h). Behavioural changes characteristic of emesis were also noted.
The test compound was administered to groups of 6 male ferrets (1.5-2 kg) by intravenous administration at doses of 0.01, 0.1 and 1 mg/kg, immediately prior to administration of cisplatin as described above.

ferrets [2] = test: Cisplatin-induced emesis in ferrets, test compound i.p.; settings: ferret, cisplatin 9 mg/kg i.p. + test compound 1 mg/kg i.p. 30 minutes before and 1 hour after cisplatin
Method: Thus cisplatin was administered intraperitoneally to a group of 4 male ferrets at a dose of 9 mg/kg, and the time to onset of emesis and the number of emetic episodes were recorded. In a second group of four male ferrets the test compound was administered at a dose of 1 mg/kg i.p. 30 minutes before and 1 hour after intraperitoneal administration of cisplatin.

[3] = cisplatin 10 mg/kg i.v. + test compound 0.01 mg/kg i.v.

Cc1nccn1CC1CCc2c(c3ccccc3n2C)C1=O.Cl.O.O (stereo not drawn) [test compound, 1,2,3,9-tetrahydro-9-methyl-3-[(2-methyl-1H-imidazol-1-yl)methyl]-4H-carbazol-4-one hydrochloride dihydrate]
Mean % Increase in gastric emptying (± s.e.) (guinea-pigs; 0.001 mg/kg i.p., 1 hour): 21 ± 8.7% | Mean % Increase in gastric emptying (± s.e.) (guinea-pigs; 0.001 mg/kg i.p., 2 hours): 57 ± 10.5% | Mean % Increase in gastric emptying (± s.e.) (guinea-pigs; 0.01 mg/kg i.p., 1 hour): 33 ± 3.6% | Mean % Increase in gastric emptying (± s.e.) (guinea-pigs; 0.01 mg/kg i.p., 2 hours): 76.5 ± 11.2% | Mean % Increase in gastric emptying (± s.e.) (guinea-pigs; 0.1 mg/kg i.p., 1 hour): 47 ± 7.6% | Mean % Increase in gastric emptying (± s.e.) (guinea-pigs; 0.1 mg/kg i.p., 2 hours): 68 ± 5.0% | Duration of emesis (ferrets [1]; [3]): 1 h | Intensity of emesis (ferrets [1]; [3]): 17 ± 2.9 episodes 2 h | Onset of emesis (ferrets [1]; [3]): 89 to 109 min | Emesis and behavioural changes (ferrets [1]; cisplatin 10 mg/kg i.v. + test compound 0.1 mg/kg i.v.): Emesis and behavioural changes were completely | Emesis and behavioural changes (ferrets [1]; cisplatin 10 mg/kg i.v. + test compound 1 mg/kg i.v.): Emesis and behavioural changes were completely | Emetic response (onset of emesis, emetic episodes, retches) (ferrets [2]): emetic response completely

From patent publication US6569883B1, “Medicaments” (Glaxo Group Limited, priority 1985, dated 2003)
